Patent US20150174144A1, “TETRACYCLINE COMPOUNDS FOR TREATING NEURODEGENERATIVE DISORDERS” (PARATEK PHARMACEUTICALS, INC., priority 2012, published 2015)

Experiments:
Fmr1 KO2 mice = test: Marble burying test, mouse model of Fragile X Syndrome; format: in vivo; details: 10 mg/kg/d
Description: (§1) The purpose of this study was to test Compound 1 for treating Fragile X Syndrome. This study utilized Fmr1 KO mice, an animal model of Fragile X Syndrome.
(§2) The Fmr1 KO mice (C57BL/6 background) were kindly provided the FRAXA Foundation. Mice were housed in groups of the same genotype in a temperature and humidity controlled room with a 12-h light-dark cycle (lights on 7 am to 7 pm). Testing was conducted during the light phase. Food and water were available ad libitum. Testing was conducted on Fmr1 KO mice and their wild-type littermates. They were housed in commercial plastic cages purchased in the UK. Experiments were conducted in line with the requirements of the UK Animals (Scientific Procedures) Act, 1986.
(§3) The dosing protocol used is shown below. Mice were dosed at 6-7 weeks by intraperitoneal (i.p.) infusion by osmotic pump (0.5 μl/hour) for 1 week. The solution of 0.9% saline was used as a vehicle, and 10 mice were dosed per each group.

[1] = system: hippocampal neurons from Fmr1 KO mice; test: Dendritic spine development in hippocampal primary cultures; format: cell-based, mouse; details: FX hippocampal primary cultures, 20 μM, 17 hour treatment, 18 DIV
Description: The purpose of this study was to investigate the direct effects of tetracycline compounds, such as minocycline and Compound 1, on dendritic spine development in the cell derived from the mouse model of Fragile X Syndrome (FXS) and their wild-type litter mate control mouse embryos.
The compartmentalized cell culture was used in the experiments. Neuronal primary cultures of the hippocampus at embryonic day 16 (E16) were prepared from Fmr1 KO and WT litter mate control mouse embryos, and three independent cultures were used for the analysis. The in vitro system with […] was used to monitor dendritic spine morphogenesis during a time-course of culture, and immunostaining with synaptophysin was used to distinguish presynaptic boutons. The dendritic spines were usually formed between 7 and 14 days in vitro (DIV). By 14 DIV most dendiritic protrusions were spines; however, their maturation continued until 21 DIV. The effects of tetracycline compounds were evaluated at 18 DIV. Confocal Imagining analysis was performed at the University of Chile imaging center. Quantitative analysis of dentritic spine length, size distribution for dendritic spine heads and morphology of the hippocampal neurons from WT control and Fmr1 KO mice was performed after 17 hour treatment with 20 μM tetracycline compounds or with PBS control.

[2] = system: focal cerebral ischemia (permanent MCA occlusion); test: Rat stroke model, permanent MCA occlusion; format: in vivo, Male Wistar rats
MOG peptide-induced EAE = MOG peptide-induced EAE in mice; format: in vivo, C57BL/6 mouse; details: mouse, i.p. daily from day 10
Source text: The inhibitory activity of Compound 1 was characterized in both mouse and rat models of EAE. Mice were immunized s.c. with myelin oligodendrocyte glycoprotein (MOG) peptide 35-55 in CFA and later injected i.v. with Pertussis toxin. Mice were randomized at day 10 and given compound i.p. Compounds were subsequently administered daily and the animals assessed for clinical score. Mice were scored as follows: 0=no disease; 1=limp tail; 2=paralysis of one or both hind limbs; 4=paralysis of both hind- and forelimbs. […] Rats were dosed daily i.p. with compound starting day 9. Rats were scored daily and cumulative scores were determined by adding the average daily scores over the experimental period. […] The average daily scores+/−SEM and the cumulative average scores are shown. Cumulative average scores were determined by adding the average daily scores over the experimental period.

[3] = system: ferric iron-induced lipid peroxidation among rat brain tissue; test: Ferric iron-induced lipid peroxidation in rat brain tissue; format: biochemical
Description: Tetracycline compounds were tested in an in vitro assay of ferric iron-induced lipid peroxidation among rat brain tissue.

bacterial ribosome = test: Transcription/translation (TnT) in vitro assay of bacterial protein synthesis; format: biochemical
Description: The antibacterial activity of Compound 1 was evaluated against comparator compounds minocycline and doxycycline. Test compounds are considered to have antibacterial activity if they inhibit bacterial growth at test concentrations below 4 μM. […] Further, mechanistic evidence of their antibacterial activity was evaluated using the transcription/translation (TnT) in vitro assay which directly measures the bacterial cellular efficiency of protein synthesis with and without test compounds present.

[4] = 14-day acute toxicity and 28-day toxicology study in rats; format: in vivo
Description: The compound was also shown to be negative in a GLP phototoxicity assay. […] Both 14-day acute toxicity and 28-day toxicology study were performed in rats with Compound 1 along with minocycline for comparison. Animals were administered daily oral doses from 15 to 150 mg/kg for up to 4 weeks followed by a recovery period.

[5] = Preliminary embryofetal DRF study in rats; format: in vivo; details: high dose of 250 mg/kg
[6] = Cardiovascular safety study in monkeys; format: in vivo
hERG/ion channel = hERG/ion channel (Homo sapiens, UniProt Q12809); test: hERG/ion channel assays; details: pre-clinical safety studies
hERG/ion channel, sequence (Q12809 whole entry): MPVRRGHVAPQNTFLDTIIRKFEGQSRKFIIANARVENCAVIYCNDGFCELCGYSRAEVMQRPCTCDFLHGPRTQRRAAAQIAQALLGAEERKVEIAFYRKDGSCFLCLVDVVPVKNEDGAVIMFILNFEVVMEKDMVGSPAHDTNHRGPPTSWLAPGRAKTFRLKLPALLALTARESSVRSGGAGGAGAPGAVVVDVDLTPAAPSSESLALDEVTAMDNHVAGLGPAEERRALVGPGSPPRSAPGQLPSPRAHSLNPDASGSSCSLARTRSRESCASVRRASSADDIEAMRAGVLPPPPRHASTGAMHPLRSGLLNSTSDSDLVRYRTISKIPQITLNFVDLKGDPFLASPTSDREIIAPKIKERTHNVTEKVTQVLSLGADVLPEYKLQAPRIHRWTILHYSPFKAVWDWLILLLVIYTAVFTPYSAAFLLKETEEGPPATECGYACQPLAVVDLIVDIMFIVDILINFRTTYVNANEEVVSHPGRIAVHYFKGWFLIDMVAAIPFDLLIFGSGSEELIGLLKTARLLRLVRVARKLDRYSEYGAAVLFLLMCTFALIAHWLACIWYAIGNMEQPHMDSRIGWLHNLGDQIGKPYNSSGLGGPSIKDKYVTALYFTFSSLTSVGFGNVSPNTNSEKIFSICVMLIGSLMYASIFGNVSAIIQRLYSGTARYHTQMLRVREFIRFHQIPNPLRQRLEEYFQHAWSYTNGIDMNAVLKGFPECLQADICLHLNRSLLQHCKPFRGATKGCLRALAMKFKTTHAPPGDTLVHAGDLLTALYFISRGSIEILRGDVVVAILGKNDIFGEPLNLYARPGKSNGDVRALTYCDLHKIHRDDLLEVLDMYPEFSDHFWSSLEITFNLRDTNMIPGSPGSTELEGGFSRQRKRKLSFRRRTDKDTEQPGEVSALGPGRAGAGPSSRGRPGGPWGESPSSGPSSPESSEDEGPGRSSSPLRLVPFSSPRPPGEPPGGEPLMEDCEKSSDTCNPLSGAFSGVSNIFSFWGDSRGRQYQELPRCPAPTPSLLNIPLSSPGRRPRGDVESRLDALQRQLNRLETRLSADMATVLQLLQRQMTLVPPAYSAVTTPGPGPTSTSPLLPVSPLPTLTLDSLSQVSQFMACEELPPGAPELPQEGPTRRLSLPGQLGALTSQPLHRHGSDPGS

[7] = system: Fmr1 KO mice and wild-type littermates; test: Open Field test, mouse model of Fragile X Syndrome; format: in vivo; details: 10 mg/kg/d i.p. osmotic pump, 1 week
Description: as §1, §2, §3

[8] = system: Fmr1 KO mice and wild-type littermates; test: Elevated Plus Maze test, mouse model of Fragile X Syndrome; format: in vivo; details: 10 mg/kg/d i.p. osmotic pump, 1 week
Description: as §1, §2, §3

CCc1cc(N(C)C)c2c(c1O)C(=O)C1=C(O)[C@]3(O)C(=O)C(C(N)=O)=C(O)[C@@H](N(C)C)[C@@H]3C[C@@H]1C2 [Compound 1]
Marble burying deficit of Fmr1 KO2 mice (Fmr1 KO2 mice): significantly rescued
Spine number [1]: 0.28±0.05
Neurological score ([2]; 40 mg/kg i.v. at −90 min, 90 min, 6 hr after MCAO, permanent): 1.1 ± 0.3
Infarct volume (Means ± SD) ([2]; 40 mg/kg i.v. at −90 min, 90 min, 6 hr after MCAO, permanent, 24 hr after MCAO): 145.7 ± 33.9 mm3
Effect on infarct volume ([2]; permanent occlusion, treatment started at 90 min pre-occlusion): statistically significant reductions in infarct volume
Effect on clinical course of EAE (onset, maximum disease severity) (MOG peptide-induced EAE): both delayed the onset and inhibited the maximum disease severity more potently than minocycline
Lipid peroxidation (% of Control) ([3]; 1.0 μM): 92 % of Control
Lipid peroxidation (% of Control) ([3]; 10 μM): 68 % of Control
Lipid peroxidation (% of Control) ([3]; 100 μM): 56 % of Control
Protein Synthesis Inhibition (IC50) (bacterial ribosome): >100 µg/mL
Thyroid tissue staining ([4]; at comparable doses to minocycline): little or no thyroid tissue staining
Adverse effects ([4]; daily oral doses from 15 to 150 mg/kg for up to 4 weeks): Few adverse effects were observed at any dose
Effects on fetal body weight [5]: only slight effects on fetal body weight
Cardiovascular safety findings [6]: No treatment-related effects were observed
Effects in hERG/ion channel assays (hERG/ion channel): no significant effects
Open Field Test - Trial 2, Mean time ([7]; Fmr1 KO mice): 97.100 min
Open Field Test - Trial 3, Mean time ([7]; Fmr1 KO mice): 72.600 min
Open Field Test - Trial 2, Mean time ([7]; WT mice): 83.900 min
Open Field Test - Trial 3, Mean time ([7]; WT mice): 68.300 min
Elevated Plus Maze: time spent in the close arm, Mean time ([8]; Fmr1 KO mice): 259.100 min
Elevated Plus Maze: time spent in the close arm, Mean time ([8]; WT mice): 227.800 min
